In US20120039826A1, “COSMETIC COMPOSITION FOR SKIN LIGHTENING” (priority 2009, published 2012):

System: Keratinocytes (HaCaT cells)
Test: Keratinocyte differentiation assay
Format: cell-based
Conditions: HaCaT cells cultured with active 24 hours, acridine orange, % of control (control = 100)
Method: Keratinocyte Differentiation Assay
This is an in vitro cell culture based assay to evaluate the capability of these actives to alter cell differentiation process. Keratinocytes (HaCaT cells—5×10^4 cells/well) were grown in 24 well plates for 24 hours. These proliferating keratinocytes were further cultured with actives for 24 hours. Cells were then washed with PBS and stained with acridine orange in PBS (Sigma Chemical Co, USA). Cells were washed 15 minutes later and viewed using an epi-fluorescent microscope (Olympus BX 50), at 20× magnification, using appropriate excitation and barrier filters, to simultaneously view red and green fluorescence (excitation: 460 nm and emission >515 nm). The entire plate was scanned and the percentage of differentiated keratinocytes (cells with red fluorescence evenly distributed within the cytoplasm) was estimated. Data were represented as % of control. Higher % values indicate increased cell differentiation.

With `O=C([O-])C(O)C(O)C(=O)[O-].[Na+].[Na+]` (stereo not drawn) [Na tartarate (c4), Na tartarate] the “% Differentiation” value (concentration 0.01%) was 165%.
With `CC(=O)[O-].CC(=O)[O-].[Mg+2]` [Magnesium acetate] the “% Differentiation” value (concentration 0.002%) was 250% and the “% Differentiation” value (concentration 0.01%) was 237%.
In the case of `CC(=O)O.N` [Ammonium acetate], the “% Differentiation” value (concentration 0.002%) is reported as 175%.
With `CC(=O)[O-].[Na+]` [Sodium acetate] the “% Differentiation” value (concentration 0.002%) was 175% and the “% Differentiation” value (concentration 0.01%) was 168%.
